# From patent US10457707B2, “Substituted urea depsipeptide analogs as activators of the CLPP endopeptidase” (priority 2015, dated 2019)
# Like-named read-outs stand apart in the source and are kept apart here.
# What was measured:
# Format in all cases: cell-based
# [1] = tested on: Streptococcus pneumoniae, DAW27; test: Minimal inhibitory concentration assay (microbroth dilution); details: DAW27, read-out: Minimal Inhibitory Concentrations S. pneumoniae DAW27
# Method in brief: (§1)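 Antibacterial activity was measured by CLSI-standard microdilution in broth, using overnight aerobic incubation at 37 °C. Growth inhibition was scored visually, and MIC taken as the lowest concentration preventing growth.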
# [2] = tested on: Bacillus subtilis, ATCC 23857; test: as above
# Method in brief: as §1
# [3] = tested on: Staphylococcus aureus, ATCC 29213; test: as above; details: ATCC29213, read-out: Minimal Inhibitory Concentrations S. aureus ATCC 29213
# Method in brief: as §1
# [4] = tested on: Staphylococcus aureus, NRS70; test: as above
# Method in brief: as §1
# [5] = tested on: Enterococcus faecalis, ATCC 33186; test: as above
# Method in brief: as §1
# E. coli K12ΔtolC = test: as above
# [6] = tested on: Streptococcus pyogenes, ATCC 700294; test: as above
# Method in brief: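 CLSI broth microdilution: two-fold serial compound dilutions in appropriate broth, inoculated and incubated aerobically overnight at 37° C. MIC read visually as lowest concentration preventing bacterial growth.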
# [7] = tested on: Vero (kidney epithelial cells; ATCC CCL-81); test: Cytotoxicity assay (CellTiter-Glo cell viability, 72 hours); details: Vero cells, 72 hours, growth inhibition; read-out: Cytotoxicity IC50
# Method in brief: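 Vero cells, 5000/well, grown overnight at 37° C, 5% CO2 in DMEM with 10% FBS, then exposed to serial compound dilutions or DMSO for 72 hours. Viability read by CellTiter-Glo luminescence. IC50 from duplicate wells, reported as range over two independent experiments.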
# [8] = tested on: Staphylococcus aureus, USA 300; test: Minimal inhibitory concentration assay; details: USA300, read-out: Minimal Inhibitory Concentrations S. aureus USA 300
# Method in brief: as §1
# [9] = tested on: Staphylococcus aureus, USA 300 wherein ClpP is inactivated; test: Minimal inhibitory concentration assay
# Method in brief: as §1
# [10] = Bacillus subtilis, ATCC23857; read-out: Minimal Inhibitory Concentrations B. subtilis ATCC 23857
# [11] = Staphylococcus aureus, NRS70; read-out: Minimal Inhibitory Concentrations S. aureus NRS70
# [12] = Enterococcus faecalis, ATCC33186; read-out: Minimal Inhibitory Concentrations E. faecalis ATCC 33186
# [13] = Streptococcus pyogenes, ATCC700294; read-out: Minimal Inhibitory Concentrations S. pyogenes ATCC 700294
# [14] = Bacillus subtilis, ATCC23857, read-out: Minimal Inhibitory Concentrations B. subtilis ATCC 23857
# [15] = Staphylococcus aureus, NRS70, read-out: Minimal Inhibitory Concentrations S. aureus NRS70
# [16] = Enterococcus faecalis, ATCC33186, read-out: Minimal Inhibitory Concentrations E. faecalis ATCC 33186
# [17] = Streptococcus pyogenes, ATCC700294, read-out: Minimal Inhibitory Concentrations S. pyogenes ATCC 700294
Structure (SMILES),MIC [1] [µM],"MIC [2, 10] [µM]",MIC [3] [µM],"MIC [4, 11] [µM]","MIC [5, 12] [µM]",Minimal Inhibitory Concentrations E. coli K12ΔtolC (E. coli K12ΔtolC) [µM],"MIC [6, 13] [µM]","MIC [2, 14] [µM]","MIC [4, 15] [µM]","MIC [5, 16] [µM]",IC50 [7] [µM],"MIC [6, 17] [µM]",MIC ([4]; S. aureus NRS70; read-out: Minimal Inhibitory Concentrations S. aureus NRS70) [µM],MIC ([6]; S. pyogenes ATCC 700294; read-out: Minimal Inhibitory Concentrations S. pyogenes ATCC 700294) [µM],MIC [8] [µM],Minimal Inhibitory Concentrations S. aureus USA 300 ΔClpP [9] [µM]
"NC[C@H]1O[C@H](O[C@H]2[C@H](O)[C@@H](O[C@H]3O[C@H](CO)[C@@H](O)[C@H](N)[C@H]3O)[C@H](N)C[C@@H]2N)[C@H](O)[C@@H](O)[C@@H]1O [Kanamycin, kanamycin, reference compound]",25,0.1,1.56,50,25,0.4,12.5,,,,,,,,,
"C[C@@H]1C[C@H]2C(=O)OC[C@H](NC(=O)[C@H](Cc3ccccc3)NC(=O)Nc3ccc(N(C)C)cc3)C(=O)N3CCC[C@H]3C(=O)N3CCCC[C@H]3C(=O)N[C@@H](C)C(=O)N2C1 [Compound 5, (S)—N-((2R,6S,8aS,14aS,20S,23aS)-2,6-dimethyl-5,8,14,19,23-pentaoxooctadecahydro-1H,5H,14H,19H-pyrido[2,1-i]dipyrrolo[2,1-c:2′,1′-l][1]oxa[4,7,10,13]tetraazacyclohexadecin-20-yl)-2-(3-(4-(dimethylamino)phenyl)ureido)-3-phenylpropanamide]",0.39,,6.25,,,50,,0.78,1.56,0.78,91.3 ± 12.7,0.78,,,,
"COc1cccc(NC(=O)N[C@@H](Cc2ccccc2)C(=O)N[C@H]2COC(=O)[C@@H]3C[C@@H](C)CN3C(=O)[C@H](C)NC(=O)[C@@H]3CCCCN3C(=O)[C@@H]3CCCN3C2=O)c1 [Compound 8, (S)—N-((2R,6S,8aS,14aS,20S,23aS)-2,6-dimethyl-5,8,14,19,23-pentaoxooctadecahydro-1H,5H,14H,19H-pyrido[2,1-i]dipyrrolo[2,1-c:2′,1′-l][1]oxa[4,7,10,13]tetraazacyclohexadecin-20-yl)-2-(3-(3-methoxyphenyl)ureido)-3-phenylpropanamide]",0.39,3.13,3.13,3.13,1.56,200,0.78,,,,,,,,,
"CCc1ccc(NC(=O)N[C@@H](Cc2ccccc2)C(=O)N[C@H]2COC(=O)[C@@H]3C[C@@H](C)CN3C(=O)[C@H](C)NC(=O)[C@@H]3CCCCN3C(=O)[C@@H]3CCCN3C2=O)cc1 [Compound 4, (S)—N-((2R,6S,8aS,14aS,20S,23aS)-2,6-dimethyl-5,8,14,19,23-pentaoxooctadecahydro-1H,5H,14H,19H-pyrido[2,1-i]dipyrrolo[2,1-c:2′,1′-l][1]oxa[4,7,10,13]tetraazacyclohexadecin-20-yl)-2-(3-(4-ethylphenyl)ureido)-3-phenylpropanamide]",0.04,0.2,0.78,0.39,0.1,25,0.2,,,,,,,,,
"C[C@@H]1C[C@H]2C(=O)OC[C@H](NC(=O)[C@H](Cc3ccccc3)NC(=O)Nc3ccc4ccn(C)c4c3)C(=O)N3CCC[C@H]3C(=O)N3CCCC[C@H]3C(=O)N[C@@H](C)C(=O)N2C1 [Compound 12, (S)—N-((2R,6S,8aS,14aS,20S,23aS)-2,6-dimethyl-5,8,14,19,23-pentaoxooctadecahydro-1H,5H,14H,19H-pyrido[2,1-i]dipyrrolo[2,1-c:2′,1′-l][1]oxa[4,7,10,13]tetraazacyclohexadecin-20-yl)-2-(3-(1-methyl-1H-indol-6-yl)ureido)-3-phenylpropanamide]",0.3,,2.5,,,,,2.5,2.5,1.25,90 ± 7.6,0.6,,,,
"C[C@@H]1C[C@H]2C(=O)OC[C@H](NC(=O)[C@H](Cc3ccccc3)NC(=O)Nc3ccc(OC(F)(F)F)cc3)C(=O)N3CCC[C@H]3C(=O)N3CCCC[C@H]3C(=O)N[C@@H](C)C(=O)N2C1 [Compound 2, (S)—N-((2R,6S,8aS,14aS,20S,23aS)-2,6-dimethyl-5,8,14,19,23-pentaoxooctadecahydro-1H,5H,14H,19H-pyrido[2,1-i]dipyrrolo[2,1-c:2′,1′-l][1]oxa[4,7,10,13]tetraazacyclohexadecin-20-yl)-3-phenyl-2-(3-(4-(trifluoromethoxy)phenyl)ureido)propanamide]",0.02,0.2,,,0.02,12.5,,,,,,,0.20,0.10,,
"C[C@@H]1C[C@H]2C(=O)OC[C@H](NC(=O)[C@H](Cc3ccccc3)NC(=O)Nc3ccc4c(c3)CCN4C)C(=O)N3CCC[C@H]3C(=O)N3CCCC[C@H]3C(=O)N[C@@H](C)C(=O)N2C1 [Compound 11, (S)—N-((2R,6S,8aS,14aS,20S,23aS)-2,6-dimethyl-5,8,14,19,23-pentaoxooctadecahydro-1H,5H,14H,19H-pyrido[2,1-i]dipyrrolo[2,1-c:2′,1′-l][1]oxa[4,7,10,13]tetraazacyclohexadecin-20-yl)-2-(3-(1-methylindolin-5-yl)ureido)-3-phenylpropanamide]",0.3,,2.5,,,,,1.25,1.25,0.6,76 ± 10.6,0.6,,,,
"C[C@@H]1C[C@H]2C(=O)OC[C@H](NC(=O)[C@H](Cc3cc(F)cc(F)c3)NC(=O)Nc3ccc(OC(F)(F)F)cc3)C(=O)N3CCC[C@H]3C(=O)N3CCCC[C@H]3C(=O)N[C@@H](C)C(=O)N2C1 [Compound 13, (S)-3-(3,5-difluorophenyl)-N-((2R,6S,8aS,14aS,20S,23aS)-2,6-dimethyl-5,8,14,19,23-pentaoxooctadecahydro-1H,5H,14H,19H-pyrido[2,1-i]dipyrrolo[2,1-c:2′,1′-l][1]oxa[4,7,10,13]tetraazacyclohexadecin-20-yl)-2-(3-(4-(trifluoromethoxy)phenyl)ureido)propanamide]",0.04,0.08,0.05,0.8,0.04,,0.15,,,,,,,,,
"CN(C)[C@@H]1C(O)=C(C(N)=O)C(=O)[C@@]2(O)C(O)=C3C(=O)c4c(O)cccc4[C@@](C)(O)[C@H]3C[C@@H]12 [Tetracycline, tetracycline, reference compound]",0.1,1.6,0.1,0.05,0.05,,0.1,,,,,,,,0.1,
"CCc1ccc(NC(=O)N[C@@H](Cc2cc(F)cc(F)c2)C(=O)N[C@H]2COC(=O)[C@@H]3C[C@@H](C)CN3C(=O)[C@H](C)NC(=O)[C@@H]3CCCCN3C(=O)[C@@H]3CCCN3C2=O)cc1 [Compound 14, (S)-3-(3,5-difluorophenyl)-N-((2R,6S,8aS,14aS,20S,23aS)-2,6-dimethyl-5,8,14,19,23-pentaoxooctadecahydro-1H,5H,14H,19H-pyrido[2,1-i]dipyrrolo[2,1-c:2′,1′-l][1]oxa[4,7,10,13]tetraazacyclohexadecin-20-yl)-2-(3-(4-ethylphenyl)ureido)propanamide]",0.04,0.08,0.1,0.08,0.04,,0.8,,,,,,,,,
"CCc1cccc(NC(=O)N[C@@H](Cc2ccccc2)C(=O)N[C@H]2COC(=O)[C@@H]3C[C@@H](C)CN3C(=O)[C@H](C)NC(=O)[C@@H]3CCCCN3C(=O)[C@@H]3CCCN3C2=O)c1 [Compound 10, (S)—N-((2R,6S,8aS,14aS,20S,23aS)-2,6-dimethyl-5,8,14,19,23-pentaoxooctadecahydro-1H,5H,14H,19H-pyrido[2,1-i]dipyrrolo[2,1-c:2′,1′-l][1]oxa[4,7,10,13]tetraazacyclohexadecin-20-yl)-2-(3-(3-ethylphenyl)ureido)-3-phenylpropanamide]",0.3,0.6,0.6,0.6,0.3,,0.6,,,,,,,,,
"O=C(N[C@H](CO)[C@H](O)c1ccc([N+](=O)[O-])cc1)C(Cl)Cl [Chloroamphenicol, chloramphenicol, reference compound]",0.78,3.1,3.13,3.1,0.39,0.78,,,,,,,,,3.1,6.3
